Results: patent publication US20070203158A1, “Fungicidal Mixtures” (BASF AKTIENGESELLSCHAFT, priority 2004, published 2007)

System: Plasmopara viticola
Experiment: Activity against peronospora of grapevines caused by Plasmopara viticola (protective spray on potted vines)
Format: in vivo
Conditions: individual active compound, untreated control 89% infection
Procedure: The active compounds, separately or jointly, were prepared as a stock solution comprising 0.25% by weight of active compound in acetone or DMSO. 1% by weight of the emulsifier Uniperol® EL (wetting agent having emulsifying and dispersant action based on ethoxylated alkylphenols) was added to this solution, and the mixture was diluted with water to the desired concentration.
Leaves of potted vines were sprayed to runoff point with an aqueous suspension having the concentration of active compound stated below. The next day, the undersides of the leaves were inoculated with an aqueous sporangia suspension of Plasmopara viticola. The grapevines were then initially placed in a water-vapor-saturated chamber at 24° C. for 48 hours and then in a greenhouse at 20-30° C. for 5 days. After this period of time, the plants were again placed in a humid chamber for 16 hours to promote sporangiophore eruption. The extent of the development of the disease on the undersides of the leaves was then determined visually.
The visually determined percentages of infected leaf areas were converted into efficacies in % of the untreated control:
The efficacy (E) is calculated as follows using Abbot's formula: E=(1−α/β)·100 • α corresponds to the fungicidal infection of the treated plants in % and • β corresponds to the fungicidal infection of the untreated (control) plants in %
An efficacy of 0 means that the infection level of the treated plants corresponds to that of the untreated control plants; an efficacy of 100 means that the treated plants are not infected.
The expected efficacies of mixtures of active compounds were determined using Colby's formula (Colby, S. R. “Calculating synergistic and antagonistic responses of herbicide combinations”, Weeds, 15, 20-22, 1967) and compared with the observed efficacies.
Colby's formula: E=x+y−x·y/100 • E expected efficacy, expressed in % of the untreated control, when using the mixture of the active compounds A and B at the concentrations a and b • x efficacy, expressed in % of the untreated control, when using the active compound A at the concentration a
y efficacy, expressed in % of the untreated control, when using the active compound B at the concentration b

CC1CCN(c2c(-c3c(F)cc(F)cc3F)c(Cl)nc3ncnn23)CC1 [compound I, 5-chloro-7-(4-methylpiperidin-1-yl)-6-(2,4,6-trifluorophenyl)-[1,2,4]tri-azolo[1,5-a]pyrimidine]
Efficacy in % of the untreated control (1 ppm in the spray liquor): 0% | Efficacy in % of the untreated control (4 ppm in the spray liquor): 33%

CO/C=C(/C(=O)OC)c1ccccc1COc1cccc(C(F)(F)F)n1 [compound II, methyl 3-methoxy-2-[2-(6-trifluoromethylpyridin-2-yloxymethyl)phenyl]acrylate]
Efficacy in % of the untreated control (1 ppm in the spray liquor): 33% | Efficacy in % of the untreated control (4 ppm in the spray liquor): 66%
